What was measured:
CAL-85-1 [1] = settings: 72 h
In short: (§1)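 In this assay, breast cancer cell lines spent 72 h with compound at 5 concentrations in 10-fold steps over a compound-specific 10,000-fold range. The first readout was cell death by CellTox Green fluorescence, and the second was viability by CellTiter-Glo luminescence, each normalised per plate to 0.1 % DMSO and a positive kill control. EC50 came from the dose-response curves, censored at the top concentration.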

HCC1599 [2] = settings: 72 h
In short: as §1

HCC1937 [3] = settings: 72 h
In short: as §1

HDQ-P1 [4] = settings: 72 h
In short: as §1

MDA-MB-453 [5] = settings: 72 h
In short: as §1

HCC1937 [6] = settings: 72 h; remark: listed apart in the source
In short: (§2)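 Viability of breast cancer cell lines was measured with CellTiter-Blue after 72 h of incubation on compound-loaded 384-well plates. Cells were seeded in 20 µl onto compound dissolved in 5 µl medium, and 2.5 µl reagent was added for 2 h at 37 °C before reading at 560/590 nm. EC50 was fitted from percent-inhibition dose-response data censored at the highest concentration, normalised per plate to vehicle and a positive kill control, with zero drug sensitivity score rows dropped.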

SK-BR-3 [7] = settings: 72 h
In short: as §2

BT-474 [8] = settings: 72 h
Experimental: (§3)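 Drug sensitivity and resistance testing (DSRT) of breast cancer cell lines in 384-well plates, 5 concentrations in 10-fold dilutions over a compound-specific 10,000-fold range. After 72 h, cytotoxicity was read by CellTox Green fluorescence and viability by CellTiter-Glo luminescence (multiplexed), normalised to DMSO and benzethonium chloride controls. EC50 is the inflection point of the fitted dose-response curve (bottom asymptote free, so it can be relative for partial curves) and is censored at the highest tested concentration. Rows with DSS 0 (no meaningful response) were excluded.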

BT-549 [9] = settings: 72 h
Experimental: as §3

CAL-85-1 [10] = settings: 72 h; remark: listed apart in the source
Experimental: as §3

HCC1599 [11] = settings: 72 h; remark: listed apart in the source
Experimental: as §3

Hs578T [12] = settings: 72 h
Experimental: as §3

MDA-MB-231 [13] = settings: 72 h
Experimental: as §3

MDA-MB-436 = settings: 72 h
Experimental: as §3

CAL-148 [14] = settings: 72 h
In short: as §1

BT-474 [15] = settings: 72 h; remark: listed apart in the source
In short: as §2

Hs578T [16] = settings: 72 h; remark: listed apart in the source
In short: as §2

MDA-MB-231 [17] = settings: 72 h; remark: listed apart in the source
In short: as §2

MDA-MB-468 [18] = settings: 72 h
In short: as §2

CAL-148 [19] = settings: 72 h; remark: listed apart in the source
Experimental: as §3

CAL-51 = settings: 72 h
Experimental: as §3

CAL-120 [20] = settings: 72 h
Experimental: as §3

HCC1143 = settings: 72 h
Experimental: as §3

HCC1937 [21] = settings: 72 h; remark: listed apart in the source
Experimental: as §3

HDQ-P1 [22] = settings: 72 h; remark: listed apart in the source
Experimental: as §3

MDA-MB-468 [23] = settings: 72 h; remark: listed apart in the source
Experimental: as §3

MCF-10A = settings: 72 h
Experimental: as §3

MFM-223 = settings: 72 h
Experimental: as §3

DU-4475 [24] = settings: 72 h
Experimental: as §3

MDA-MB-453 [25] = settings: 72 h; remark: listed apart in the source
Experimental: as §3

BT-474 [26] = test: normalised response (% of control), CellTiter-Glo; higher = more viable cells (100 = DMSO, 0 = benzethonium chloride kill control); settings: incubation time: 72 h
In short: (§4)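 Values are normalised signals, each belonging to one concentration of the series. Breast cancer cells (20 µl suspension) were seeded into 384-well plates with compound at 5 concentrations in 10-fold steps over a compound-specific 10,000-fold range and incubated 72 h. Readouts were CellTox Green fluorescence (485/520 nm), then CellTiter-Glo luminescence after 10 min at room temperature, with each plate set to 0.1 % DMSO as 100 and a positive kill control as 0.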

BT-549 [27] = test: as above; settings: incubation time: 72 h
In short: as §4

CAL-120 [28] = test: as above; settings: incubation time: 72 h
In short: as §4

CAL-148 [29] = test: as above; settings: incubation time: 72 h
In short: as §4

CAL-85-1 [30] = test: as above; settings: incubation time: 72 h
In short: as §4

DU-4475 [31] = test: as above; settings: incubation time: 72 h
In short: as §4

HCC1599 [32] = test: as above; settings: incubation time: 72 h
In short: as §4

HCC1937 [33] = test: as above; settings: incubation time: 72 h
In short: as §4

HDQ-P1 [34] = test: as above; settings: incubation time: 72 h
In short: as §4

Hs578T [35] = test: as above; settings: incubation time: 72 h
In short: as §4

MDA-MB-231 [36] = test: as above; settings: incubation time: 72 h
In short: as §4

SK-BR-3 [37] = test: as above; settings: incubation time: 72 h
In short: as §4

Row | EC50, CellTiter-Glo (HCC1599 [2]) | EC50, CellTiter-Glo (HCC1937 [3]) | EC50, CellTiter-Glo (MDA-MB-453 [5]) | SMILES | EC50, CellTiter-Glo (CAL-85-1 [1]) | EC50, CellTiter-Glo (HDQ-P1 [4]) | EC50, CellTiter-Blue viability (HCC1937 [6]) | EC50, CellTiter-Blue viability (SK-BR-3 [7]) | EC50, CellTox Green (BT-474 [8]) | EC50, CellTox Green (CAL-85-1 [10]) | EC50, CellTox Green (HCC1599 [11]) | EC50, CellTox Green (MDA-MB-231 [13]) | EC50, CellTiter-Glo (CAL-148 [14]) | EC50, CellTox Green (CAL-148 [19]) | EC50, CellTox Green (CAL-51) | EC50, CellTox Green (CAL-120 [20]) | EC50, CellTox Green (HDQ-P1 [22]) | also measured
1 | – | – | – | O=C1c2c(O)ccc(O)c2C(=O)c2c(NCCNCCO)ccc(NCCNCCO)c21 [Mitoxantrone] | – | – | 0.00213 µM | 0.0345 µM | – | – | – | – | 0.403 µM | 0.124 µM | 0.185 µM | – | – | EC50, CellTiter-Blue viability (BT-474 [15]): 0.106 µM; EC50, CellTiter-Blue viability (Hs578T [16]): 0.532 µM; EC50, CellTiter-Blue viability (MDA-MB-231 [17]): 0.0517 µM; EC50, CellTiter-Blue viability (MDA-MB-468 [18]): 0.0747 µM
2 | 3.02 µM | 0.567 µM | 1.2 µM | Nc1ccccc1NC(=O)c1ccc(CNc2nccc(-c3cccnc3)n2)cc1 [Mocetinostat] | 2.71 µM | 5.52 µM | 1.96 µM | 1.05 µM | 6.83 µM | 2.38 µM | 2.1 µM | 1.72 µM | 2.27 µM | 5.35 µM | 1.6 µM | 4.51 µM | 0.597 µM | EC50, CellTiter-Blue viability (BT-474 [15]): 5.75 µM; EC50, CellTiter-Blue viability (Hs578T [16]): 2.67 µM; EC50, CellTiter-Blue viability (MDA-MB-231 [17]): 2.74 µM; EC50, CellTiter-Blue viability (MDA-MB-468 [18]): 1.93 µM; EC50, CellTox Green (BT-549 [9]): 7.7 µM; EC50, CellTox Green (HCC1143): 3.36 µM; EC50, CellTox Green (HCC1937 [21]): > 10 µM; EC50, CellTox Green (Hs578T [12]): 0.629 µM; EC50, CellTox Green (MDA-MB-436): 1.34 µM; EC50, CellTox Green (MDA-MB-468 [23]): 0.961 µM
3 | – | – | – | COc1nc(N)nc2c1ncn2[C@@H]1O[C@H](CO)[C@@H](O)[C@@H]1O [Nelarabine] | – | – | – | – | – | – | – | – | – | – | – | – | – | EC50, CellTox Green (BT-549 [9]): > 10 µM
4 | – | – | – | Cc1ccc(Nc2nccc(N(C)c3ccc4c(C)n(C)nc4c3)n2)cc1S(N)(=O)=O [Pazopanib] | – | – | – | – | – | > 10 µM | – | – | – | – | – | – | – | EC50, CellTox Green (HCC1143): > 10 µM
5 | – | 3.84 µM | 0.508 µM | CS(=O)(=O)N1CCN(Cc2cc3nc(-c4cccc5[nH]ncc45)nc(N4CCOCC4)c3s2)CC1 [Pictilisib] | 0.997 µM | 0.657 µM | – | – | 9.3 µM | 2.15 µM | – | – | 1.35 µM | 0.293 µM | 2.09 µM | – | – | EC50, CellTox Green (MCF-10A): 0.27 µM; EC50, CellTox Green (MFM-223): 0.955 µM
6 | – | 3.07 µM | – | O=C(NC[C@H](O)CO)c1ccncc1Nc1ccc(I)cc1F [Pimasertib] | 1.09 µM | 0.0186 µM | – | – | 2.84 µM | 1.34 µM | – | 0.0166 µM | 1.01 µM | – | – | 0.783 µM | – | EC50, CellTox Green (DU-4475 [24]): 0.0481 µM
7 | – | – | – | C[C@]12C=CC(=O)C=C1CC[C@@H]1[C@@H]2[C@@H](O)C[C@@]2(C)[C@H]1CC[C@]2(O)C(=O)CO [Prednisolone] | – | – | – | – | – | – | – | – | – | – | – | – | 7.32 µM | –
8 | 0.0713 µM | 0.199 µM | 0.011 µM | Cn1cc(CNCC2CCN(c3ncc(C(=O)NO)cn3)CC2)c2ccccc21 [Quisinostat] | 0.0341 µM | 0.148 µM | – | – | 0.036 µM | 0.0185 µM | 0.106 µM | 0.0725 µM | 0.0283 µM | 0.0521 µM | 0.116 µM | 0.0656 µM | 0.396 µM | EC50, CellTox Green (DU-4475 [24]): 0.0956 µM; EC50, CellTox Green (HCC1143): 0.134 µM; EC50, CellTox Green (Hs578T [12]): 0.0603 µM; EC50, CellTox Green (MDA-MB-453 [25]): > 1 µM; EC50, CellTox Green (MDA-MB-468 [23]): 0.00587 µM; EC50, CellTox Green (MFM-223): 0.0588 µM
9 | 0.189 µM | 2.74 µM | 1.83 µM | CC[C@@]1(O)C(=O)OCc2c1cc1n(c2=O)Cc2cc3c(CN(C)C)c(O)ccc3nc2-1 [Topotecan] | 0.755 µM | – | 0.0303 µM | 0.052 µM | > 10 µM | 0.913 µM | 0.748 µM | 0.369 µM | 0.221 µM | 0.0556 µM | 0.195 µM | 2.57 µM | > 10 µM | EC50, CellTiter-Blue viability (MDA-MB-231 [17]): 0.612 µM; EC50, CellTiter-Blue viability (MDA-MB-468 [18]): 0.0719 µM; EC50, CellTox Green (HCC1937 [21]): 3.07 µM; EC50, CellTox Green (MCF-10A): 1.88 µM; EC50, CellTox Green (MDA-MB-436): 2.72 µM; EC50, CellTox Green (MDA-MB-468 [23]): 2.24 µM
10 | – | – | – | CC[C@@]1(O)C(=O)OCc2c1cc1n(c2=O)Cc2cc3c(CN(C)C)c(O)ccc3nc2-1 [Topotecan] (100 nM) | – | – | – | – | – | – | – | – | – | – | – | – | – | normalised response (BT-474 [26]): 91.9%; normalised response (BT-549 [27]): 84.2%; normalised response (CAL-120 [28]): 95.9%; normalised response (CAL-148 [29]): 62.4%; normalised response (CAL-85-1 [30]): 85.7%; normalised response (DU-4475 [31]): 77.9%; normalised response (HCC1599 [32]): 65.5%; normalised response (HCC1937 [33]): 95.7%; normalised response (HDQ-P1 [34]): 95.7%; normalised response (Hs578T [35]): 101%; normalised response (MDA-MB-231 [36]): 92.8%; normalised response (SK-BR-3 [37]): 66.3%

Row | SMILES | EC50, CellTiter-Glo (HCC1599 [2]) | EC50, CellTiter-Glo (HCC1937 [3]) | EC50, CellTiter-Glo (MDA-MB-453 [5]) | EC50, CellTiter-Glo (CAL-85-1 [1]) | EC50, CellTiter-Glo (HDQ-P1 [4]) | EC50, CellTiter-Blue viability (HCC1937 [6]) | EC50, CellTiter-Blue viability (SK-BR-3 [7]) | EC50, CellTox Green (BT-474 [8]) | EC50, CellTox Green (CAL-85-1 [10]) | EC50, CellTox Green (HCC1599 [11]) | EC50, CellTox Green (MDA-MB-231 [13]) | EC50, CellTiter-Glo (CAL-148 [14]) | EC50, CellTox Green (CAL-148 [19]) | EC50, CellTox Green (CAL-51) | EC50, CellTox Green (CAL-120 [20]) | EC50, CellTox Green (HDQ-P1 [22]) | also measured
11 | C[C@]12O[C@H](C[C@]1(O)CO)n1c3ccccc3c3c4c(c5c6ccccc6n2c5c31)CNC4=O [Lestaurtinib] | 0.238 µM | > 1 µM | 0.00303 µM | 0.277 µM | 0.233 µM | 0.369 µM | 0.813 µM | 0.819 µM | 0.356 µM | 0.439 µM | > 1 µM | – | – | – | – | – | EC50, CellTox Green (BT-549 [9]): 1 µM; EC50, CellTox Green (Hs578T [12]): 0.333 µM; EC50, CellTox Green (MDA-MB-436): 0.0119 µM

Reference: the supplement of paper PMC4862054
